The values below are quoted from earlier work in US6582498B1, “Method of separating carbon dioxide from a gas mixture using a fluid dynamic instability” (Battelle Memorial Institute, priority 2001, dated 2003).

The subject of series [1] is mouse.
The test system of series [2] is rat.
Series [3] has as its system rabbit.

For the compound `NCCO` [MEA, monoethanolamine], the LD50 (intraperitoneal for mouse) in series [1] was 50 mg/kg. The “LD50 (oral for rat)” value in series [2] is 2,050 mg/kg. In addition, the “eye irritation (for rabbit)” value in series [3] is 0.763 milligrams.
